Experimental data reported in patent publication US9738655B2, “Tetrahydroisoquinolines containing substituted azoles as factor XIa inhibitors” (BRISTOL-MYERS SQUIBB COMPANY, priority 2013, dated 2017).
Counter-ions that a name gives are not always drawn. Like-named read-outs stand apart in the source and are kept apart here.

Target: purified human Factor XIa (Homo sapiens (Human), UniProt P03951)
Assay: Factor XIa enzyme inhibition assay (chromogenic substrate S-2366)
[1] = read-out: Factor XIa Ki, measured at 25° C.

purified human Factor XIa, sequence (P03951 388-625): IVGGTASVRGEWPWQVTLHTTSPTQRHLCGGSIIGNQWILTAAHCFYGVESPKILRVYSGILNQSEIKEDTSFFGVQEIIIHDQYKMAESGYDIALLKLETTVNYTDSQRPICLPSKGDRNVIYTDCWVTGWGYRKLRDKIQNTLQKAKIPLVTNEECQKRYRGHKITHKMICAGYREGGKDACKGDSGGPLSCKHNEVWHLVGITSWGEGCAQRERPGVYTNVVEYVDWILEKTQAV
purified human Factor XIa, sequence (P03951 19-387 partner): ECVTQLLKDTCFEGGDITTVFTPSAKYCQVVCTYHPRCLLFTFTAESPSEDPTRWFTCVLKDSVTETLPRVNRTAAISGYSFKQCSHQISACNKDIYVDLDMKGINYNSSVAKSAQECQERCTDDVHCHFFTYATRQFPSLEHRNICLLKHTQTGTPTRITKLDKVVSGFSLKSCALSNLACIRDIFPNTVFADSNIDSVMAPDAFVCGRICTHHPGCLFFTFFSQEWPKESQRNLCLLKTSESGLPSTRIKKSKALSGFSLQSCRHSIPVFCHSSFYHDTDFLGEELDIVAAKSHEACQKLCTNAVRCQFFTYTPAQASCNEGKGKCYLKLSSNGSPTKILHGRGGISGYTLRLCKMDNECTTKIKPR

Molecule | Ki [1] [nM] | Ki [nM]
4-(2-(1-(3-chloro-2- fluorophenyl)-5-hydroxy- 1H-pyrazole-4-carbonyl)-5- (4-methylpiperazin-1-yl)- 1,2,3,4- tetrahydroisoquinoline-1- carboxamido)benzoic acid, 2 TFA salt. [Example 214] | 713 | 
O=C(O)c1ccc(NC(=O)C2c3cccc(N4CCOCC4=O)c3CCN2C(=O)[C@H]2CC(c3cccc(Cl)c3F)=NO2)cc1 (stereo in doubt) [Example 290, 4-((S)-2-((R)-3-(3-chloro-2-fluorophenyl)-4,5-dihydroisoxazole-5-carbonyl)-5-(3-oxomorpholino)-1,2,3,4-tetrahydroisoquinoline-1-carboxamido)benzoic acid] | 13.4 | 
O=C(O)c1ccc(NC(=O)[C@H]2c3ccccc3CCN2C(=O)c2cn(-c3cccc(Cl)c3F)nn2)cc1 [Example 2, (R)-4-(2-(1-(3-Chloro-2-fluorophenyl)-1H-1,2,3-triazole-4-carbonyl)-1,2,3,4-tetrahydroisoquinoline-1-carboxamido)benzoic acid] | 5580 | 
Nc1cc(-c2cccc3c2CCN(C(=O)c2cn(-c4cccc(Cl)c4F)nn2)C3C(=O)Nc2ccc(C(=O)O)cc2)ccn1 (stereo not shown) [Example 38, 4-(5-(2-aminopyridin-4-yl)-2-(1-(3-chloro-2-fluorophenyl)-1H-1,2,3-triazole-4-carbonyl)-1,2,3,4-tetrahydroisoquinoline-1-carboxamido)benzoic acid, bis-TFA salt] | < 5 | 
O=C(O)c1ccc(NC(=O)C2c3cccc(-c4ccc5c(c4)CCNC5)c3CCN2C(=O)c2cn(-c3cccc(Cl)c3F)nn2)cc1 (stereo not shown) [Example 40, 4-(2-(1-(3-chloro-2-fluorophenyl)-1H-1,2,3-triazole-4-carbonyl)-1,1′,2,2′,3,3′,4,4′-octahydro-[5,6′-biisoquinoline]-1-carboxamido)benzoic acid, TFA salt] | < 5 | 
Nc1c(C(=O)N2CCc3c(-c4cncnc4)cccc3C2C(=O)Nc2ccc(C(=O)O)cc2)cnn1-c1cccc(Cl)c1F (stereo not shown) [Example 46, 4-(2-(5-Amino-1-(3-chloro-2-fluorophenyl)-1H-pyrazole-4-carbonyl)-5-(pyrimidin-5-yl)-1,2,3,4-tetrahydroisoquinoline-1-carboxamido)benzoic acid, TFA salt] | < 5 | 
CNC(=O)c1ccc(-c2cccc3c2CCN(C(=O)c2cnn(-c4cccc(Cl)c4F)c2N)C3C(=O)Nc2ccc(C(=O)O)cc2)cn1 (stereo not shown) [Example 47, 4-(2-(5-Amino-1-(3-chloro-2-fluorophenyl)-1H-pyrazole-4-carbonyl)-5-(6-(methylcarbamoyl)pyridin-3-yl)-1,2,3,4-tetrahydroisoquinoline-1-carboxamido)benzoic acid, TFA salt] | < 5 | 
CC1(O)CCN(c2cccc3c2CCN(C(=O)c2cnn(-c4cccc(Cl)c4F)c2)C3C(=O)Nc2ccc(C(=O)O)cc2)CC1 (stereo not shown) [Example 68, 4-(2-(1-(3-chloro-2-fluorophenyl)-1H-pyrazole-4-carbonyl)-5-(4-hydroxy-4-methylpiperidin-1-yl)-1,2,3,4-tetrahydroisoquinoline-1-carboxamido)benzoic acid, TFA salt] | < 5 | 
CN1CCC(=O)N(c2cccc3c2CCN(C(=O)c2cnn(-c4cccc(Cl)c4F)c2)C3C(=O)Nc2ccc(C(=O)O)cc2)CC1 (stereo not shown) [Example 70, 4-(2-(1-(3-chloro-2-fluorophenyl)-1H-pyrazole-4-carbonyl)-5-(4-methyl-7-oxo-1,4-diazepan-1-yl)-1,2,3,4-tetrahydroisoquinoline-1-carboxamido)benzoic acid, TFA salt] | 29.3 | 
O=C(O)c1ccc(NC(=O)C2c3cccc(N4CCC(O)CC4)c3CCN2C(=O)c2cn(-c3cccc(Cl)c3F)nn2)cc1 (stereo not shown) [Example 85, 4-(2-(1-(3-chloro-2-fluorophenyl)-1H-1,2,3-triazole-4-carbonyl)-5-(4-hydroxypiperidin-1-yl)-1,2,3,4-tetrahydroisoquinoline-1-carboxamido)benzoic acid, TFA salt] | < 5 | 
O=C(O)c1ccc(NC(=O)[C@@H]2c3cccc(N4CCC(O)CC4)c3CCN2C(=O)c2cn(-c3cccc(Cl)c3F)nn2)cc1 [Example 86, (S)-4-(2-(1-(3-chloro-2-fluorophenyl)-1H-1,2,3-triazole-4-carbonyl)-5-(4-hydroxypiperidin-1-yl)-1,2,3,4-tetrahydroisoquinoline-1-carboxamido)benzoic acid, TFA salt] | < 5 | 
O=C(O)c1ccc(NC(=O)[C@H]2c3cccc(N4CCC(O)CC4)c3CCN2C(=O)c2cn(-c3cccc(Cl)c3F)nn2)cc1 [Example 87, (R)-4-(2-(1-(3-chloro-2-fluorophenyl)-1H-1,2,3-triazole-4-carbonyl)-5-(4-hydroxypiperidin-1-yl)-1,2,3,4-tetrahydroisoquinoline-1-carboxamido)benzoic acid, TFA salt] | 43 | 
O=C(O)c1ccc(NC(=O)C2c3cccc(NCCO)c3CCN2C(=O)c2cn(-c3cccc(Cl)c3F)nn2)cc1 (stereo not shown) [Example 111, 4-(2-(1-(3-Chloro-2-fluorophenyl)-1H-1,2,3-triazole-4-carbonyl)-5-((2-hydroxyethyl)amino)-1,2,3,4-tetrahydroisoquinoline-1-carboxamido)benzoic acid, TFA salt] | 6.04 | 
O=C(N[C@H]1CC[C@@H](C(=O)O)CC1)C1c2cccc(-c3cncnc3)c2CCN1C(=O)c1cn(-c2cccc(Cl)c2F)nn1 (stereo partly drawn) [Example 133, (1R,4R)-4-(2-(1-(3-chloro-2-fluorophenyl)-1H-1,2,3-triazole-4-carbonyl)-5-(pyrimidin-5-yl)-1,2,3,4-tetrahydroisoquinoline-1-carboxamido) cyclohexanecarboxylic acid] | 12.6 | 
COC(=O)C12CCC(NC(=O)C3c4cccc(-c5cncnc5)c4CCN3C(=O)c3cn(-c4cccc(Cl)c4F)nn3)(CC1)CC2 (stereo not shown) [Example 142, Methyl 4-(2-{[1-(3-chloro-2-fluorophenyl)-1H-1,2,3-triazol-4-yl]carbonyl}-5-(pyrimidin-5-yl)-1,2,3,4-tetrahydroisoquinoline-1-amido)bicyclo[2.2.2]octane-1-carboxylate, TFA salt] | 56.2 | 
COC1CCN(c2cccc3c2CCN(C(=O)c2sc(-c4cccnc4)nc2C)C3C(=O)Nc2ccc(C(=O)O)cc2)CC1 (stereo not shown) [Example 146, 4-(5-(4-methoxypiperidin-1-yl)-2-(4-methyl-2-(pyridin-3-yl)thiazole-5-carbonyl)-1,2,3,4-tetrahydroisoquinoline-1-carboxamido)benzoic acid, 2 TFA salt] | 1200 | 
COC1CCN(c2cccc3c2CCN(C(=O)c2cc(-c4ccccc4Cl)no2)C3C(=O)Nc2ccc(C(=O)O)cc2)CC1 (stereo not shown) [Example 148, 4-(2-(3-(2-chlorophenyl)isoxazole-5-carbonyl)-5-(4-methoxypiperidin-1-yl)-1,2,3,4-tetrahydroisoquinoline-1-carboxamido)benzoic acid, TFA salt] | 69.5 | 
COC1CCN(c2cccc3c2CCN(C(=O)C2CCN(c4ccc(OC(C)C)cc4)C2=O)C3C(=O)Nc2ccc(C(=O)O)cc2)CC1 (stereo not shown) [Example 149, 4-(2-(1-(4-isopropoxyphenyl)-2-oxopyrrolidine-3-carbonyl)-5-(4-methoxypiperidin-1-yl)-1,2,3,4-tetrahydroisoquinoline-1-carboxamido)benzoic acid, TFA salt] | 7160 | 
COC1CCN(c2cccc3c2CCN(C(=O)c2cc(-c4cccc(F)c4)no2)C3C(=O)Nc2ccc(C(=O)O)cc2)CC1 (stereo not shown) [Example 152, 4-(2-(3-(3-fluorophenyl)isoxazole-5-carbonyl)-5-(4-methoxypiperidin-1-yl)-1,2,3,4-tetrahydroisoquinoline-1-carboxamido)benzoic acid, TFA salt] | 466 | 
COc1ncc(-c2cccc3c2CCN(C(=O)c2cn(-c4cccc(Cl)c4F)nn2)C3C(=O)Nc2ccc(C(=O)O)cc2)c(OC)n1 (stereo not shown) [Example 158, 4-(2-(1-(3-chloro-2-fluorophenyl)-1H-1,2,3-triazole-4-carbonyl)-5-(2,4-dimethoxypyrimidin-5-yl)-1,2,3,4-tetrahydroisoquinoline-1-carboxamido)benzoic acid] |  | < 5
NCc1ccc(-c2cccc3c2CCN(C(=O)c2cn(-c4cccc(Cl)c4F)nn2)C3C(=O)Nc2ccc(C(=O)O)cc2)cc1 (stereo not shown) [Example 163, 4-(5-(4-(aminomethyl)phenyl)-2-(1-(3-chloro-2-fluorophenyl)-1H-1,2,3-triazole-4-carbonyl)-1,2,3,4-tetrahydroisoquinoline-1-carboxamido)benzoic acid, TFA salt] | < 5 | 
O=C(O)c1ccc(NC(=O)C2c3cccc(-c4cccc(-c5ccn[nH]5)c4)c3CCN2C(=O)c2cn(-c3cccc(Cl)c3F)nn2)cc1 (stereo not shown) [Example 164, 4-(5-(3-(1H-pyrazol-5-yl)phenyl)-2-(1-(3-chloro-2-fluorophenyl)-1H-1,2,3-triazole-4-carbonyl)-1,2,3,4-tetrahydroisoquinoline-1-carboxamido)benzoic acid] | 9.17 | 
O=C(O)c1ccc(NC(=O)C2c3cccc(C4=CCOCC4)c3CCN2C(=O)c2cn(-c3cccc(Cl)c3F)nn2)cc1 (stereo not shown) [Example 165, 4-(2-(1-(3-chloro-2-fluorophenyl)-1H-1,2,3-triazole-4-carbonyl)-5-(3,6-dihydro-2H-pyran-4-yl)-1,2,3,4-tetrahydroisoquinoline-1-carboxamido)benzoic acid] | < 5 | 
CNC(=O)c1ccc(-c2cccc3c2CCN(C(=O)c2cn(-c4cccc(Cl)c4F)nn2)C3C(=O)Nc2ccc(C(=O)O)cc2)cn1 (stereo not shown) [Example 166, 4-(2-(1-(3-chloro-2-fluorophenyl)-1H-1,2,3-triazole-4-carbonyl)-5-(6-(methylcarbamoyl)pyridin-3-yl)-1,2,3,4-tetrahydroisoquinoline-1-carboxamido)benzoic acid, TFA salt] | < 5 | 
Cn1ncc2c(-c3cccc4c3CCN(C(=O)c3cn(-c5cccc(Cl)c5F)nn3)C4C(=O)Nc3ccc(C(=O)O)cc3)cccc21 (stereo not shown) [Example 169, 4-(2-(1-(3-chloro-2-fluorophenyl)-1H-1,2,3-triazole-4-carbonyl)-5-(1-methyl-1H-indazol-4-yl)-1,2,3,4-tetrahydroisoquinoline-1-carboxamido)benzoic acid] | < 5 | 
